Experimental data reported in US20120232044A1, “METHODS AND COMPOSITIONS FOR TREATING HYPERURICEMIA AND METABOLIC DISORDERS ASSOCIATED WITH HYPERURICEMIA” (TWi Biotechnology, Inc., priority 2011, published 2012).

Tests used:
[1] = system: subjects with chronic gout and hyperuricemia; assay: Case study of diacerein and allopurinol combination therapy in subjects with chronic gout and hyperuricemia; format: in vivo, human; conditions: for blood level of uric acid: visit 1 before diacerein
Experimental: In DIA-DM01 trial described in Example 1, two subjects enrolled in the diacerein group had chronic gout history and were currently treating with allopurinol.
Case 1: A person with history of chronic gout and hyperuricemia was treated with allopurinol since Jan. 2, 2009. Before they were enrolled in the diacerein trial, their medical treatment was unsatisfactory, and their blood level of uric acid was 8.3 mg/dL in visit 1 (Jul. 8, 2009).
Case 2: A person with history of chronic gout and hyperuricemia was treated with allopurinol since Aug. 27, 2009. Before they were enrolled in the diacerein trial, their medical treatment was also unsatisfactory, and their blood level of uric acid was 9.5 mg/dL in visit 1 (Dec. 18, 2009).

[2] = system: type 2 diabetes patients with micro-albuminuria, hyperuricemia sub-group (baseline blood uric acid higher than 7.0 mg/dL); assay: DIA-DM01 trial, hyperuricemia sub-group: blood uric acid level under diacerein 50 mg bid versus placebo; format: in vivo, human; conditions: for patients whose blood uric acid levels achieved normal range: normal: females below 6.0 mg/dL, males below 7.0 mg/dL
Source text: Objectives: To evaluate the efficacy and safety of diacerein for the treatment of albuminuria in patients with type 2 diabetes mellitus.
Primary Endpoints: To compare the change from baseline in the urinary albumin to creatinine ratio (UACR) after 24 weeks of diacerein or placebo administrated.
Subjects: Male or female type 2 diabetes patients (BMI≦35 kg/m^2) with micro-albuminuria.
Procedure: This was a Phase II, prospective, randomized, double-blind, and parallel comparison study comparing diacerein 50 mg bid (twice a day) versus placebo to albuminuria in patients with type 2 diabetes mellitus.
At the screening visit, patients who fulfilled the enrollment criteria and gave written informed consent entered a three to ten days screening period. During the screening period, the baseline UACR was evaluated. If the baseline UACR was greater than 50 mg/g, the patients were randomized into the […] treatment period in the 1:1 ratio (diacerein versus placebo). All participants were required to be taking stable dose of angiotensin-converting-enzyme (ACE) inhibitors, angiotensin receptor blockers (ARBs), or both, for three months prior to the study. These agents were continued throughout the trial. The hypoglycemic medications were maintained during the study period. The class and/or dosage were changed if clinically indicated. An introduction of a new treatment or any regimen change to the pre-existing co-medication that had hypoglycemic or hyperglycemic potential was allowed during the study with the consent of the clinical investigator.
The hyperuricemia sub-group was assembled from among the subjects with baseline blood uric acid level higher than 7.0 mg/dL. The results of blood uric acid level in the two treatment groups were analyzed by paired t-test of within-group changes.
Subjects (n=76) with diabetic microalbinuria were randomized in a 1:1 ratio to receive twice-daily diacerein 50 mg (n=38), or placebo (n=38) for 24 weeks. The baseline blood levels of uric acid in nine subjects of the diacerein group (2 females and 7 males) and twelve subjects of the placebo group (2 females and 10 males) in the hyperuricemia subgroup were above 7.0 mg/dL, and the mean levels were 8.06 mg/dL and 8.38 mg/dL respectively.

Compound	blood level of uric acid ([1]; Case 1, on allopurinol alone)	blood level of uric acid ([1]; Case 2, on allopurinol alone)	patients whose blood uric acid levels achieved normal range ([2]; 24-week treatment with diacerein)	Uric Acid, Mean ([2]; Baseline (before treatment), diacerein group, N=9)	Uric Acid, Mean ([2]; Baseline (before treatment), diacerein group, N=9, listed as Diacerein)	patients whose blood uric acid levels achieved normal range ([2]; after 12 weeks of diacerein)	blood uric acid levels maintained during the treatment period ([2]; diacerein 50 mg bid, below the upper end of the normal range)	Uric Acid, Mean ([2]; week 12, diacerein 50 mg bid, N=9)	Uric Acid, Change from baseline ([2]; week 12, diacerein 50 mg bid, N=9, p=0.0037 vs. baseline)	Uric Acid, Mean ([2]; week 24, diacerein 50 mg bid, N=7)	Uric Acid, Change from baseline ([2]; week 24, diacerein 50 mg bid, N=7, p=0.0060 vs. baseline)	blood uric acid level ([1]; Case 1, after 24 weeks of diacerein add-on to allopurinol)	acute flares during the treatment period ([1]; Case 1, diacerein add-on to allopurinol, 24 weeks)	blood uric acid level ([1]; Case 2, after 12 weeks of diacerein add-on to allopurinol)
Oc1ncnc2[nH]ncc12 [allopurinol]	8.3 mg/dL	9.5 mg/dL	–	–	–	–	–	–	–	–	–	–	–	–
CC(=O)Oc1cccc2c1C(=O)c1c(OC(C)=O)cc(C(=O)O)cc1C2=O [diacerein, 4,5-bis(acetyloxy)-9,10-dioxo-2-anthracene carboxylic acid]	–	–	four of the remaining seven patients	8.06 mg/dL	8.0667 mg/dL	six of the nine patients	below 7.0 mg/dL	6.6667 mg/dL	-1.40 mg/dL	6.5571 mg/dL	-1.34 mg/dL	7.5 mg/dL	No acute flares were observed	6.4 mg/dL
